Results as given in PMC11224359, “Stable peptide-assembled nanozyme mimicking dual antifungal actions” (Nature Communications, 2024).

Assay: Peptide self-assembly morphology by TEM
Type: physicochemical
Procedure: Powders of each of the peptides were dissolved in 1.5 mM Ni(Ac)2 solution to a certain concentration range (e.g. 0.0–1.5 mM) and sonicated for a period of time, and were then allowed to cool gradually to 25 °C overnight. Aged samples could be left at room temperature for more than 90 days.
TEM images were recorded using a JEM1200EX (JEOL) (Japan) operating at 100 kV dropped on a double copper net. Typically, 1.5 mM samples are diluted 10-fold and stained with 3% uranyl acetate for viewing. For AFM, liquid Ni-IH-7 ([…]) was dropped on a mica sheet and observed by Bruker Dension Icon (Germany). The AMFM data were fitted using the Analyze panel module in Igor Pro software to obtain a modulus curve, yielding the average Young’s modulus. Simultaneously, we utilized the Hertz model force curve fitting results to validate the reliability of the Young’s modulus. Cryo-EM and two-dimensional classification data of Ni-IH-7 were collected by Talos Arctica 200 kV FEG (USA). AMFM was tested using Cypher S (USA) in the presence of AC160TS-R3 (probe). Samples were diluted 50 times and dried on mica flakes. KPFM was tested using Cypher S (USA) and obtain the Contact potential difference. The standard highly oriented pyrolytic graphite was 675 mV. HAADF-STEM was obtained by JEM ARM 200 F (accelerating voltage: 200 kV) (JEOL, Japan).

Substance: ICICICI [heptapeptide ICICICI]
- assembly into nanostructure: could not form typical nanostructure
